How the values were obtained:
[1] = tested on: MPTP-induced mice model of PD; settings: 25 mg/kg for 21 days; MPTP-induced mice model of PD (Zhao T. T. et al.); cited from earlier work
[2] = tested on: PD patients carrying PLA2G6 mutations; settings: cited from earlier work
[3] = tested on: PLA2G6^D331Y/D331Y knockin mice; test: Locomotor activity in open field boxes after L-DOPA in homozygous (D331Y) PLA2G6 knockin mice; assay type: in vivo; settings: about 1.5 mg/kg; homozygous PLA2G6^D331Y/D331Y knockin mouse at about 9 months old
Experimental: Behavioral Assessments The locomotor activity of WT or (D331Y) PLA2G6 KI mice were evaluated in open field boxes for 60 minutes. Movements of animal were recorded and assessed with the TopScan video tracking system (Clever Sys., Inc.). The locomotor activity of mouse was examined by measuring the velocity and distance. To evaluate the therapeutic benefit of L-DOPA in PLA2G6^D331Y/D331Y mice, benserazide (0.5 mg/kg) and L-DOPA (1.5 mg/kg) were intraperitoneally administered into animal. The locomotor activity was recorded 40 min after the injection.

N[C@@H](Cc1ccc(O)c(O)c1)C(=O)O [L-DOPA]
therapeutic effect [1]: significant therapeutic effect | effectiveness in treating patients [2]: effective | symptoms of motor deficit [3]: significantly improve symptoms of said motor deficit

Reference: patent publication US20200215204A1, “EARLY-ONSET PARKINSON'S DISEASE MODEL: (D331Y) PLA2G6 KNOCKIN MODEL, PLATFORM AND METHOD FOR DRUG SCREENING, AND KIT OF DETECTION” (Chang Gung Memorial Hospital, Linkou, priority 2019, published 2020)
